# According to a melting point compilation (Tetko et al.; mined from patent text by program, amines drawn as free bases though some values may be those of a salt):
row,melting point [°C],SMILES
1,69 to 72,CCc1cc(-c2ccc(C(C)=O)cc2)ccc1OC
2,76 to 77,CC(=O)C(=O)N[C@H](CO[N+](=O)[O-])c1ccccc1
3,118,CC(C)c1nc(CC(=O)O)n(C)c1Sc1cc(Cl)cc(Cl)c1
4,232 to 234,Cc1cccc2ncc(-c3nnnn3C)c(=O)n12
5,167 to 170,CNc1c([N+](=O)[O-])ccc(Cl)c1C#N
6,219,CC(C)(C)OC(=O)N1CCC(c2ncc(-c3cnc(-c4ccccc4)nc3)[nH]2)C1 (stereo not given)
7,156 to 157,Cc1oc(-c2ccc(C(F)(F)F)cc2)nc1COc1cc(F)cc(CN(O)C(N)=O)c1
8,73,Cn1nc(C#N)c2ccccc21
9,96 to 101,CNC(=O)C(C)(C)N(OC(C)(C)C#N)C(C)(C)C
10,105 to 110,O=C(O)CCN1CCCCC1=O
11,223 to 224,CCOc1cccc2cc(C(=O)NNS(=O)(=O)c3ccccc3)oc12
12,123 to 124,COC(=O)C(O)c1ccccc1Nc1c(Cl)cccc1Cl (stereo not given)
13,178 to 180,CNC(=O)C(NC(=O)OCc1ccccc1)C(N)=O (stereo not given)
14,107 to 108,CC(C#N)=CCN1C(=O)c2ccccc2S1(=O)=O
15,129 to 130,CCOC(=O)Nc1csc2cc(OCc3ccccc3)ccc12
16,149,O=C(O)CNC(=O)[C@@H](CO)NC(=O)CNC(=O)CSC(=O)c1ccccc1
17,71 to 72.5,COC(=O)CCCCCCCCCCCCCCCCCCCCCc1c(C)cc(OC)c(OC)c1O

row,melting point [°C],SMILES
1,296 to 298,COc1cc(OC)c(/C=C/S(=O)(=O)Nc2ccc(OC)c(NC(C)=O)c2)c(OC)c1
2,239 to 240,COc1ccc2[nH]cc(CC(=O)N3CCN(c4ccc([N+](=O)[O-])cc4)CC3)c2c1
3,305 to 307,Cc1ccc(CNc2cccc3c2C(=O)N(C2CCC(=O)NC2=O)C3=O)o1 (stereo not given)
4,212 to 221,CC(C)(C)c1nc(CO)c[nH]1
5,184 to 186,CCOC(=O)C1=C(C)NC(c2c(F)cc(F)cc2F)=NC1c1ccc(F)cc1Cl (stereo not given)
6,158 to 160,CC(C)[C@H](NC(=O)OCc1ccccc1)C(=O)NC(Cc1ccccc1)C(O)C(N)Cc1ccccc1 (stereo not given in full)
7,125 to 128,Cc1oncc1C(=O)Nc1ccc(-n2nc(C(F)(F)F)cc2C2CC2)c(F)c1
8,268 to 269,N#Cc1ccc(-c2nc(-c3ccc(F)cc3)c(-c3ccncc3)[nH]2)cc1
9,64 to 67,CC(=O)C(=Cc1cccc([N+](=O)[O-])c1)C(=O)CCCCCCCCCCBr
10,170 to 172,COc1ccc(CCNC(=O)c2ccc3n2Cc2ccccc2N(C(=O)c2ccc(-c4ccccc4C)c(C)c2)C3)cc1
11,47.4,CCCCCCCC(=O)c1ccc(CCO)cc1
12,195,CCNC(CC)CCOc1ccc(-c2ccc(C(=O)O)cc2)cc1-c1ccc2c(c1)C(C)(C)CCC2(C)C (stereo not given)
13,162 to 166,O=C(c1ccc(Cl)cc1)c1ccccc1N=C=S
14,165 to 166,CN(C)C(=O)N1CCc2ccc(S(=O)(=O)NC(=O)NCC3CCCC3)cc2CC1
15,131,Clc1ccc(-c2cn3cccc4c3c2CCC4)cc1
16,284,Cc1nc(NC(=O)c2cnn3c(C(F)F)cc(-c4ccc(C(F)(F)F)cc4)nc23)sc1S(N)(=O)=O
17,204 to 205,O=C1c2ccccc2C(=O)N1CCCCc1nccc(NC(=S)NCC(F)(F)F)n1

row,SMILES,melting point [°C]
1,Clc1ccccc1N=C1NCCN1,133 to 134
2,COC(=O)c1ccccc1C(=O)c1ccc(N2CCC(N3C(=O)OCc4ccc(Cl)cc43)CC2)c([N+](=O)[O-])c1,90 to 92
3,CN1C(=O)C(C(=O)c2ccc(Cl)cc2Cl)C(=O)N(C)C1=O,123 to 127
4,Cc1c(C(=O)O)nnn1Cc1ccccc1Cl,186 to 187
5,Cc1nc2ccc3c(c2nc1C)OC(CN1CC=C(c2c[nH]c4ccccc24)CC1)CO3 (stereo not given),153 to 155
6,CCOC(=O)N1CC1C(N)=O (stereo not given),125 to 128
